Test results published in patent US20220249399A1, “COMPOSITION COMPRISING AN ANTI-OXIDANT TO PRESERVE CORNEAL TISSUE” (University of lowa Research Foundation, priority 2019, published 2022).
“Also recorded” adds a separate entry of the source. Counter-ions that a name gives are not always drawn.

Assays:
[1] = system: human donor corneal endothelial cells; experiment: Mitochondrial respiration assay (Seahorse XFe24 extracellular flux analyzer) of donor corneal endothelium after storage in supplemented Optisol GS; assay type: cell-based; conditions: 1 mM ascorbate-2-phosphate
Experimental: Human corneal tissue pairs were obtained by Iowa Lions Eye Bank (ILEB) from nondiabetic donors 60-75 years old and stored in Optisol GS (Bausch+Lomb, Irvine, Calif.) at 4° C. following procurement in accordance with Eye Bank Association of America and ILEB policies and procedures. For 5 days prior to testing, but within 9 days of procurement, one stored tissue from a corneal pair was treated with 10 μM CoQ10, while the mate tissue was treated with diluent only as a control. Descemet membrane and endothelial cell punches were collected and mounted onto the bottom of a Seahorse assay plate (cells facing upward). Mitochondrial respiration was assayed by measuring oxygen consumption using the Seahorse XFe24 Extracellular Flux Analyzer (Agilent Technologies, Santa Clara, Calif.) over 120 minutes (9-minute intervals). Punches were labeled with a nuclear counterstain (DAPI) and remaining tissues were mounted onto slides and labeled with 488A-Annexin V, Ethidium Homodimer III, and Hoechst 33342 (Apoptotic, Necrotic, and Healthy Cells Quantification Kit; Biotium, Fremont, Calif.) to assay cell health. Nuclei were counted in each punch to normalize respirometry data. Immunohistochemistry densitometry was measured using ImageJ software.
Human donor whole globe eye pairs were obtained by Iowa Lions Eye Bank (ILEB) and the anterior portion of the eyes were removed. For 14 days, one cornea was stored from a corneal pair treated with 1 mM ascorbate-2-phosphate, while the mate tissue was treated with diluent only as a control. Descemet membrane and endothelial cell punches were collected and mounted onto the bottom of a Seahorse assay plate (cells facing upward). Mitochondrial respiration was assayed by measuring oxygen consumption using the Seahorse XFe24 Extracellular Flux Analyzer (Agilent Technologies, Santa Clara, Calif.) over 120 minutes (9-minute intervals). Punches were labeled with a nuclear counterstain (DAPI) and nuclei were counted in each punch to normalize respirometry data. […]
Tissue preparation and extracellular flux assays for mitochondrial respiration were performed as described in Greiner et al. (2015). In brief, after pre-stripping the EDM, 3 mm diameter EDM punches were mounted in wells of a XF24 microplate (Agilent Technologies, Santa Clara, Calif.). After acclimation for one hour at 37° C. in non-buffered assay media, metabolic activity of the EDM samples was quantified using a commercial kit (XF Cell Mito Stress Test Kits; Agilent Technologies) on a Seahorse XFe24 extracellular flux analyzer (Agilent Technologies). Following extracellular flux analysis, tissues were labeled fluorescently using a 1:1000 Sytox Green nucleic acid stain in the microtiter plate (Life Technologies, Grand Island, N.Y.) and imaged on an Olympus IX-81 inverted microscope (Olympus America, Center Valley, Pa.) using a FITC filter. Cell counts were determined using Image J (https://imagej.nih.gov/ij/download.html) and used to compute the oxygen consumption rate per cell (OCR; pmole/min/cell). Raw OCR values were used to calculate several different key parameters of metabolic function per manufacturer's directions (Agilent Technologies), as in Aldrich et al. (2017). The parameters and calculations used in this study were the main outcome measures, including basal respiration, ATP-associated oxygen consumption, proton [H^+] leak, maximal respiration, spare respiratory capacity, non-mitochondrial respiration, and coupling efficiency as described in Schneider et al. and Goldstein et al. (2018).
Mitochondrial Respiration Assay: 3 mm punches of central and peripheral endothelium-Descemet membrane complex (EDM) were secured to the bottom of cell culture microplate wells or CECs were grown directly onto microplate.

[2] = system: primary cultures of corneal endothelial cells; experiment: Seahorse XFe96 mitochondrial respiration of primary cultures of corneal endothelial cells; assay type: cell-based, human
Experimental: (§1) Human corneas were obtained by Iowa Lions Eye Bank (ILEB) from nondiabetic donors 60-75 years old and stored in Optisol GS (Bausch+Lomb, Irvine, Calif.) at 4° C. following procurement in accordance with Eye Bank Association of America and ILEB policies and procedures. Endothelial cells were isolated and cultured in Seahorse XFe96 well plates until they reached confluency. Purity of cell cultures were confirmed with anti-zonula occludens 1 (ZO-1) labeling of cellular tight junctions. Once confluent, cells were treated with different concentrations of cyclodextrin-coenzyme Q10 complex in culture (1 μM, 10 μM, or 100 μM) uncomplexed coenzyme Q10 (100 μM), cyclodextrin alone, or diluent control. Mitochondrial respiration was assayed by measuring oxygen consumption using the Seahorse XFe96 Extracellular Flux Analyzer (Agilent Technologies, Santa Clara, Calif.) over 120 minutes (9-minute intervals). Wells were labeled with a nuclear counterstain (DAPI) and nuclei were counted in each well to normalize respirometry data.
Seahorse respiration assays were conducted with MitoQ with doses ranging from 0 to 10 μM. All experiments were performed on corneal endothelial cells in culture and analyzed using the XFe96 Extracellular Flux Analyzer.
as §1, with “MitoQ with doses ranging from 0 to” for “different concentrations of cyclodextrin-coenzyme Q10 complex in culture (1 μM,”, “μM.” for “μM, or 100 μM) uncomplexed coenzyme Q10 (100 μM), cyclodextrin alone, or diluent control.”

[3] = system: immortalized human corneal endothelial cells; experiment: Seahorse XFe24 mitochondrial respiration of immortalized human corneal endothelial cells grown in hyperglycemic medium; assay type: cell-based; conditions: 25 days of growth in 5.5-13.0 mM glucose, n=18, P<0.0001
Experimental: (§2) FIG. 40. Mitochondrial respiration assay using Seahorse XFe24 extracellular flux analyzer of immortalized human corneal endothelial cells following 25 days of growth in 5.5-13.0 mM glucose and treated with 8.3 μM PQQ (n=18). Maximal respiration and spare respiratory capacity are lowered in HCECs (P<0.0001) due to hyperglycemic growing conditions.
as §2, with “41.” for “40.”, “1.0 mM NAC” for “8.3 μM PQQ”

[4] = MitoQ 0 to 10 μM (data not shown)
[5] = MitoQ 0 to 10 μM, control vs 10 μM P<0.001, n=3

In the case of ascorbate-2-phosphate, the “corneal endothelial cell mitochondrial respiration” value [1] is reported as “did not affect corneal endothelial cell mitochondrial respiration” and the “non-mitochondrial respiration, higher level than untreated control cells” value ([1]; 14 days storage, 5 paired corneas, p-value=0.053) is reported as 21%.

In the case of `COC1=C(OC)C(=O)C(CCCCCCCCCC[P+](c2ccccc2)(c2ccccc2)c2ccccc2)=C(C)C1=O` [MitoQ, mitoquinone mesylate], the basal respiration [2, 4] is reported as “dose dependent reductions”, the maximal respiration [2, 4] is reported as “dose dependent reductions” and the non-mitochondrial respiration [2, 4] is reported as “not influenced”. For the same compound, the proton leak [2, 4] was “not influenced”, the “ATP linked oxygen consumption (ATP linked respiration)” value [2, 5] was “dose dependent decrease; also recorded: significantly different” and the spare respiratory capacity [2, 5] was “dose dependent decrease; also recorded: significantly different”. The respiratory function ([2]; escalating doses of MitoQ, 0 to 10 μM) was “dose dependent decrease in respiratory function; also recorded: decreased in respiratory function”.

For `CC(=O)N[C@@H](CS)C(=O)O` [NAC, N-Acetyl-L-cysteine], the “maximal respiration and spare respiratory capacity lowered by hyperglycemic growing conditions” value ([3]; 1.0 mM NAC) was “mitigates this effect”.

With `O=C(O)c1cc(C(=O)O)c2c(n1)C(=O)C(=O)c1cc(C(=O)O)[nH]c1-2` [PQQ, pyrroloquinoline quinone] the “maximal respiration and spare respiratory capacity lowered by hyperglycemic growing conditions” value ([3]; 8.3 μM PQQ) was “mitigates this effect”.

cyclodextrin [cyclodextrin alone] was tested, and the “mitochondrial spare respiratory capacity” value ([2]; uncomplexed coenzyme Q10 (100 μM) or cyclodextrin alone vs diluent control) was “reduces the mitochondrial spare respiratory capacity”.
